Experimental data taken from patent US20070117826A1, “Pharmaceutical formulations comprising ibuprofen, oxycodone, and 14-hydroxycodeinone” (Forest Laboratories, Inc., priority 2005, published 2007).
Values joined by “and” are separate entries in the source; they are usually repeats but may differ in a detail not shown here. Identical values can stand only once. “Also recorded” adds a separate entry of the source.

What was measured:
Crl:CD-1(ICR) BR mice = experiment: Dose range finding study (mortality); type: in vivo, mouse; conditions: oral gavage
Procedure: Since no appropriate toxicity data were available (e.g., the same species, strain, route, etc.), a dose range finding study was performed using the same treatment regimen used in the micronucleus assay. Young adult male and female mice of the Crl:CD-1®(ICR) BR strain from Charles River Laboratories, Raleigh, N.C., were used in this study. Dose levels of 0, 125, 250, and 500 mg/kg were tested.

[1] = tested on: polychromatic erythrocyte cells in Crl:CD-1(ICR) BR mouse bone marrow; experiment: In vivo mouse micronucleus assay; conditions: for statistically significant increase in micronucleated PCEs: 31.25, 62.5 and 125 mg/kg; for signs of clinical toxicity in treated animals: mice dosed up to and including 125 mg/kg
Procedure: The objective of this study was to evaluate 14-hydroxycodeinone for in vivo clastogenic activity and/or disruption of the mitotic apparatus by detecting micronuclei in polychromatic erythrocyte cells in Crl:CD-1®(ICR) BR mouse bone marrow. The assay design was based on Organization for Economic Co-operation and Development (OECD) guideline 474, updated and adopted Jul. 21, 1997. The study was conducted in compliance with the Good Laboratory Practice regulations as set forth by the FDA.
The micronucleus test can serve as a rapid screen for clastogenic agents and test articles which interfere with normal mitotic cell division (Schmid, W., The micronucleus test. Mutat. Res. 31, 9-15, 1975; Heddle et al., The introduction of micronuclei as a measure of genotoxicity. Mutat. Res. 123, 61-118, 1983). Micronuclei are small chromatin bodies, consisting of entire chromosomes and/or acentric chromosome fragments, which lag behind at mitotic anaphase. At telophase, these multiple micronuclei are in the cytoplasm. During maturation of hematopoietic cells from erythoblasts to erythocytes, the nucleus is extruded. Micronuclei, if present, persist in the cytoplasm of these non-nucleated cells. Detection of micronuclei in non-nucleated cells eliminates the need to search for metaphase spreads in treated cell populations. Test articles affecting spindle-fiber function or formation can be detected through micronucleus induction. In this study, enucleated immature red blood cells or polychromatic erythrocytes (PCEs) were analyzed for the presence of micronuclei.
The micronucleus assay used 48 animals approximately 8 weeks old at the […], with a weight range of 28.4 to 35.3 g.
At least 2000 erythrocytes (PCEs) per animal were analyzed for the presence of […] was assessed by scoring the number of PCEs and ic erythrocytes (NCEs) in at least the first 500 erythrocytes for each […] of the micronuleus assay results is presented in the following table.

Compound: COc1ccc2c3c1OC1C(=O)C=C[C@@]4(O)[C@@H](C2)N(C)CC[C@]314 (some centres unmarked) [14-hydroxycodeinone]
- Number of Mice (died/total) (Crl:CD-1(ICR) BR mice; 125 mg/kg): 0/6
- Number of Mice (died/total) (Crl:CD-1(ICR) BR mice; 250 mg/kg): 3 of 6 and 3/6
- Number of Mice (died/total) (Crl:CD-1(ICR) BR mice; 500 mg/kg): 14 of 18 and 14/18
- PCE:NCE mean ratio ([1]; 31.25 mg/kg oral gavage, harvest 24 Hours): 0.74
- PCE:NCE mean ratio ([1]; 62.5 mg/kg oral gavage, harvest 24 Hours): 0.64
- PCE:NCE mean ratio ([1]; 125 mg/kg oral gavage, harvest 24 Hours): 0.66
- PCE:NCE mean ratio ([1]; 125 mg/kg oral gavage, harvest 48 Hours): 0.36
- bone marrow toxicity (PCE:NCE ratio versus control 0.60) ([1]; 125 mg/kg, 48-hour group, difference not statistically significant at p≦0.05): suggesting induced bone marrow toxicity
- statistically significant increase in micronucleated PCEs [1]: no signs of clinical toxicity or a statistically significant increase in micronucleated PCEs
- statistically significant increase in micronucleated PCEs ([1]; listed as 14-Hydroxycodeinone): did not induce statistically significant increases
- outcome of the mouse bone marrow micronucleus assay (mutagenic properties) ([1]; doses up to 125 mg/kg in mice): does not exhibit mutagenic properties; also recorded: negative
- signs of clinical toxicity in treated animals [1]: no signs of clinical toxicity
- signs of clinical toxicity in treated animals ([1]; listed as 14-hyrdroxycodeinone): did not induce signs of clinical
- cytotoxicity to the bone marrow (PCE:NCE ratios versus control) ([1]; treated groups overall): lack of cytotoxicity to the bone marrow
